Experimental data published in ChEMBL document CHEMBL4507302, “Data for DCP probe TP-020” (2021).

Columns and labels:
[1] = target: Wee1-like protein kinase 2 (Homo sapiens) (UniProt P0C1S8); details: Compound concentration 1000.0 nM
[2] = target: Calcium/calmodulin-dependent protein kinase type II subunit delta (Homo sapiens) (UniProt Q13557); details: Compound concentration 1000.0 nM
[3] = target: G protein-coupled receptor kinase 3 (Homo sapiens) (UniProt P35626); details: Compound concentration 1000.0 nM
[4] = target: Serine/threonine-protein kinase MRCK gamma (Homo sapiens) (UniProt Q6DT37); details: Compound concentration 1000.0 nM
[5] = target: Ribosomal protein S6 kinase alpha-5 (Homo sapiens) (UniProt O75582); details: Compound concentration 1000.0 nM
[6] = target: Serine/threonine-protein kinase VRK2 (Homo sapiens) (UniProt Q86Y07); details: Compound concentration 1000.0 nM
[7] = target: Platelet-derived growth factor receptor alpha (Homo sapiens) (UniProt P16234); details: Compound concentration 1000.0 nM
[8] = target: Interleukin-1 receptor-associated kinase 4 (Homo sapiens) (UniProt Q9NWZ3); details: Compound concentration 1000.0 nM
[9] = target: Serine/threonine-protein kinase PAK 3 (Homo sapiens) (UniProt O75914); details: Compound concentration 1000.0 nM
[10] = target: BMP-2-inducible protein kinase (Homo sapiens) (UniProt Q9NSY1); details: Compound concentration 1000.0 nM
[11] = target: Cyclin-dependent kinase 11A (Homo sapiens) (UniProt Q9UQ88); details: Compound concentration 1000.0 nM
[12] = system: Epidermal growth factor receptor (Homo sapiens), P00533 [UNDEFINED MUTATION]; details: Compound concentration 1000.0 nM
[13] = target: cAMP-dependent protein kinase catalytic subunit beta (Homo sapiens) (UniProt P22694); details: Compound concentration 1000.0 nM
[14] = target: Serine/threonine-protein kinase Sgk1 (Homo sapiens) (UniProt O00141); details: Compound concentration 1000.0 nM
[15] = target: Cyclin-dependent kinase 4 (Homo sapiens) (UniProt P11802); details: Compound concentration 1000.0 nM
[16] = target: NT-3 growth factor receptor (Homo sapiens) (UniProt Q16288); details: Compound concentration 1000.0 nM
[17] = target: Mitogen-activated protein kinase kinase kinase 13 (Homo sapiens) (UniProt O43283); details: Compound concentration 1000.0 nM
[18] = target: Glycogen synthase kinase-3 beta (Homo sapiens) (UniProt P49841); details: Compound concentration 1000.0 nM
[19] = system: Serine/threonine-protein kinase B-raf (Homo sapiens), P15056 [V600E]; details: Compound concentration 1000.0 nM
[20] = system: Epidermal growth factor receptor (Homo sapiens), P00533 [UNDEFINED MUTATION]; details: Compound concentration 1000.0 nM; remark: listed apart in the source
[21] = target: Cyclin-dependent kinase-like 3 (Homo sapiens) (UniProt Q8IVW4); details: Compound concentration 1000.0 nM
[22] = target: Phosphatidylinositol 4,5-bisphosphate 3-kinase catalytic subunit gamma isoform (Homo sapiens) (UniProt P48736); details: Compound concentration 1000.0 nM
[23] = target: Aurora kinase C (Homo sapiens) (UniProt Q9UQB9); details: Compound concentration 1000.0 nM
[24] = target: Muscarinic acetylcholine receptor M5 (Homo sapiens) (UniProt P08912); details: Compound concentration 10.0 uM
[25] = target: Ephrin type-A receptor 8 (Homo sapiens) (UniProt P29322); details: Compound concentration 1000.0 nM
[26] = target: Testis-specific serine/threonine-protein kinase 1 (Homo sapiens) (UniProt Q9BXA7); details: Compound concentration 1000.0 nM
[27] = system: Fibroblast growth factor receptor 3 (Homo sapiens), P22607 [G697C]; details: Compound concentration 1000.0 nM
[28] = target: Macrophage colony-stimulating factor 1 receptor (Homo sapiens) (UniProt P07333); details: Compound concentration 1000.0 nM
[29] = target: Homeodomain-interacting protein kinase 4 (Homo sapiens) (UniProt Q8NE63); details: Compound concentration 1000.0 nM
[30] = target: Protein kinase C delta type (Homo sapiens) (UniProt Q05655); details: Compound concentration 1000.0 nM
[31] = target: Homeodomain-interacting protein kinase 3 (Homo sapiens) (UniProt Q9H422); details: Compound concentration 1000.0 nM
[32] = target: Serine/threonine-protein kinase haspin (Homo sapiens) (UniProt Q8TF76); details: Compound concentration 1000.0 nM
[33] = target: Serine/threonine-protein kinase PAK 5 (Homo sapiens) (UniProt Q9P286); details: Compound concentration 1000.0 nM
[34] = target: Cyclin-dependent kinase 8 (Homo sapiens) (UniProt P49336); details: Compound concentration 1000.0 nM
[35] = target: Mitogen-activated protein kinase kinase kinase 3 (Homo sapiens) (UniProt Q99759); details: Compound concentration 1000.0 nM
[36] = target: Mitogen-activated protein kinase kinase kinase 2 (Homo sapiens) (UniProt Q9Y2U5); details: Compound concentration 1000.0 nM
[37] = target: Ephrin type-B receptor 6 (Homo sapiens) (UniProt O15197); details: Compound concentration 1000.0 nM
[38] = system: Mast/stem cell growth factor receptor Kit (Homo sapiens), P10721 [A829P]; details: Compound concentration 1000.0 nM
[39] = target: Mitogen-activated protein kinase 13 (Homo sapiens) (UniProt O15264); details: Compound concentration 1000.0 nM
[40] = target: Mitogen-activated protein kinase kinase kinase 1 (Homo sapiens) (UniProt Q13233); details: Compound concentration 1000.0 nM
[41] = target: Insulin-like growth factor 1 receptor (Homo sapiens) (UniProt P08069); details: Compound concentration 1000.0 nM
[42] = target: Mitogen-activated protein kinase kinase kinase 9 (Homo sapiens) (UniProt P80192); details: Compound concentration 1000.0 nM
[43] = system: Leucine-rich repeat serine/threonine-protein kinase 2 (Homo sapiens), Q5S007 [G2019S]; details: Compound concentration 1000.0 nM
[44] = target: Megakaryocyte-associated tyrosine-protein kinase (Homo sapiens) (UniProt P42679); details: Compound concentration 1000.0 nM
[45] = target: Tyrosine-protein kinase JAK1 (Homo sapiens) (UniProt P23458); details: Compound concentration 1000.0 nM
Tyrosine-protein kinase JAK1 (Homo sapiens), sequence (P23458 whole entry): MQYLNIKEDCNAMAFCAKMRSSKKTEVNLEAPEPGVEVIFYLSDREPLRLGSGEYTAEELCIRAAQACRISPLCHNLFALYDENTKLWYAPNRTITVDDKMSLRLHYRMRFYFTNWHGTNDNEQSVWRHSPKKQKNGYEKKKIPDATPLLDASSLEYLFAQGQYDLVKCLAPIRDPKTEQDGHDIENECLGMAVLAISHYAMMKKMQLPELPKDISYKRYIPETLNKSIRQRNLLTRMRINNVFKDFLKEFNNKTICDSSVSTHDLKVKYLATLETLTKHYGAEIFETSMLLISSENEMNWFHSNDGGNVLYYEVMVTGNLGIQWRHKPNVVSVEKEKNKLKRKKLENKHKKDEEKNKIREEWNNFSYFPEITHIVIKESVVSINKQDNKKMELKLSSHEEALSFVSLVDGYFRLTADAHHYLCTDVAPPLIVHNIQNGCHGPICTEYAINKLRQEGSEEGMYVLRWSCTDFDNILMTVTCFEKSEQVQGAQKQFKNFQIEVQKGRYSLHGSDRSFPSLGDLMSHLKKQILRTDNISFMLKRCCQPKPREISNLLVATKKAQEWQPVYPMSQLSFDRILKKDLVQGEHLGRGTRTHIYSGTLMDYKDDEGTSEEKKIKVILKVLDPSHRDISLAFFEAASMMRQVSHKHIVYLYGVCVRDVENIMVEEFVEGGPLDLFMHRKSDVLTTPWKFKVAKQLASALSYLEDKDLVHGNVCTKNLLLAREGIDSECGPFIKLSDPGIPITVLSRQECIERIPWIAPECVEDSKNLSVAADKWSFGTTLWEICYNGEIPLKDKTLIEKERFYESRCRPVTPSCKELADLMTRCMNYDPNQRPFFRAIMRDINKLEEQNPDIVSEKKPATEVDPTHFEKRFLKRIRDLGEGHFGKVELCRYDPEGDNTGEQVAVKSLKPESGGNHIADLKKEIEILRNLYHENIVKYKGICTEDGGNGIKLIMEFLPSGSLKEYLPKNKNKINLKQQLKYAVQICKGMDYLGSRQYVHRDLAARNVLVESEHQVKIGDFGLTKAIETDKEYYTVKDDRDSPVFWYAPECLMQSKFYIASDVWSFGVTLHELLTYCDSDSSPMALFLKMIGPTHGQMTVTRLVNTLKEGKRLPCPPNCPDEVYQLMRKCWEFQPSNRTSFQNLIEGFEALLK

Epidermal growth factor receptor (Homo sapiens), P00533 [UNDEFINED MUTATION], sequence (P00533 whole entry, looked up, change not shown): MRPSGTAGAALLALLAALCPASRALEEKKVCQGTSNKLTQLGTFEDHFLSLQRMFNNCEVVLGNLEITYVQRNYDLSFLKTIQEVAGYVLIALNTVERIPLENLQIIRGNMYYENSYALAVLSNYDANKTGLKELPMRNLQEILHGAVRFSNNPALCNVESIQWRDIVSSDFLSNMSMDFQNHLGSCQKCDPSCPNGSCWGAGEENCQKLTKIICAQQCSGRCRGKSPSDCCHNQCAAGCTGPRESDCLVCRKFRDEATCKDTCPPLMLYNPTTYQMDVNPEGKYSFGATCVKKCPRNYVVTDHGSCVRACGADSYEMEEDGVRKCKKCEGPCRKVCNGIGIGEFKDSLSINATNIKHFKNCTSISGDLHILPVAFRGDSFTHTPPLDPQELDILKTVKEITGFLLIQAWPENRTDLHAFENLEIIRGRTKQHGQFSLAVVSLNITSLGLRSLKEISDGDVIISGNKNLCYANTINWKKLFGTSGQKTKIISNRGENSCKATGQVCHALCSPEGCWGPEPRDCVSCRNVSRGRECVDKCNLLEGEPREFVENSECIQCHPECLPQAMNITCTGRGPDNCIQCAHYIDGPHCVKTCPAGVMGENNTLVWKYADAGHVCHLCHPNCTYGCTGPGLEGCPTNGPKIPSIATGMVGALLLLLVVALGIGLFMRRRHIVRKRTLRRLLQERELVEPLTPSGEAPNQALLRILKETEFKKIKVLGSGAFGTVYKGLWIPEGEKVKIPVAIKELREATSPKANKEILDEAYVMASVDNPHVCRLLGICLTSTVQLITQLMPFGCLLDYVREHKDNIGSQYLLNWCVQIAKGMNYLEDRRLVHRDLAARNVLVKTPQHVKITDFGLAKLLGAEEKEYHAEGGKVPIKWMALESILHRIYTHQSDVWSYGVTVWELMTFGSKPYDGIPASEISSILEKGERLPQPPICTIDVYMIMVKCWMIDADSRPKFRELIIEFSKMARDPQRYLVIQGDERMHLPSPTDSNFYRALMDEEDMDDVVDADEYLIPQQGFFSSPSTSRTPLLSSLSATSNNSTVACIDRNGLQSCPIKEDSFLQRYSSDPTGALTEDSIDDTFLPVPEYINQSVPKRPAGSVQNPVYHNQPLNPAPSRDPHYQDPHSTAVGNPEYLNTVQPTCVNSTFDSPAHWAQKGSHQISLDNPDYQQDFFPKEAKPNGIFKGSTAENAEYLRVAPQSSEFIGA
Ephrin type-A receptor 8 (Homo sapiens), sequence (P29322 whole entry): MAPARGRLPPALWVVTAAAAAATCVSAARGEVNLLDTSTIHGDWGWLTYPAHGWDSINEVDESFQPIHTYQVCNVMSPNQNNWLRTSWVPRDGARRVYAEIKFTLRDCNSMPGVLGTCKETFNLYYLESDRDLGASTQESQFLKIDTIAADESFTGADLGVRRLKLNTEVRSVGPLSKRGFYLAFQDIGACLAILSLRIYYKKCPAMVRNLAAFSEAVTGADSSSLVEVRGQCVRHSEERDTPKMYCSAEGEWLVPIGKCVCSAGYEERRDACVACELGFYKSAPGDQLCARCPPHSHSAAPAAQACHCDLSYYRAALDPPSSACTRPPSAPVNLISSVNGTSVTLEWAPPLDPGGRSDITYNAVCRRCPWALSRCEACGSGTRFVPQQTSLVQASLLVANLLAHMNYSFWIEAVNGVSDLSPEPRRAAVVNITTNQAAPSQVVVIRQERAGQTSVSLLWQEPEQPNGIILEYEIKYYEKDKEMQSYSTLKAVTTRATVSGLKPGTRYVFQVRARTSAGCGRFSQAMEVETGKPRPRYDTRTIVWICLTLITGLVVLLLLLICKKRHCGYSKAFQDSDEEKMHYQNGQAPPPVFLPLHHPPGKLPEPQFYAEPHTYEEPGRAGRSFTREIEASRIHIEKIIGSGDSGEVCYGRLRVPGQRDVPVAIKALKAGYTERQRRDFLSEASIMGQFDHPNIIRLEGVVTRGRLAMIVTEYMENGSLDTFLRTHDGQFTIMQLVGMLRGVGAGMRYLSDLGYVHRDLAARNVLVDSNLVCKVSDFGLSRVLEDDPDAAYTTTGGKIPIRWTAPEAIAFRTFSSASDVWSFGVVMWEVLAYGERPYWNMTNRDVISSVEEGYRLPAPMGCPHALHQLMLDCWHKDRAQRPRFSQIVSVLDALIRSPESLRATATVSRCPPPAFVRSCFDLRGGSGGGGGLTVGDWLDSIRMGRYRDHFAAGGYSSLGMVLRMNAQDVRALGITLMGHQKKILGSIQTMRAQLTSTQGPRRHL
Wee1-like protein kinase 2 (Homo sapiens), sequence (P0C1S8 whole entry, looked up): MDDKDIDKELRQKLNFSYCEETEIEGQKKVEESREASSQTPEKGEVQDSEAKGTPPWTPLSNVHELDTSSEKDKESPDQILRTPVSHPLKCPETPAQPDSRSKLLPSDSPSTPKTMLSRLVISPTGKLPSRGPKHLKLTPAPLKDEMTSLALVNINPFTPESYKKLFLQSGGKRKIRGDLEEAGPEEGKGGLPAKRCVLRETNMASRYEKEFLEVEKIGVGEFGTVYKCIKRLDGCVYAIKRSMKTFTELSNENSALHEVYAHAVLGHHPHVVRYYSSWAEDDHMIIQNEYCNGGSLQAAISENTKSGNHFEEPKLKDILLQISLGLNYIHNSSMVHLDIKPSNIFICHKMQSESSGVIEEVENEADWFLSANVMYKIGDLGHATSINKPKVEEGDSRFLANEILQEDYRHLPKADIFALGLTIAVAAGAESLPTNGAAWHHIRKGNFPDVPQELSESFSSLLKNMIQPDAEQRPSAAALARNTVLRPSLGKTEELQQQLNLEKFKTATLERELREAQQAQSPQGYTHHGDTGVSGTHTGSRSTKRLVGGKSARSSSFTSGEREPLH
Glycogen synthase kinase-3 beta (Homo sapiens), sequence (P49841 whole entry, looked up): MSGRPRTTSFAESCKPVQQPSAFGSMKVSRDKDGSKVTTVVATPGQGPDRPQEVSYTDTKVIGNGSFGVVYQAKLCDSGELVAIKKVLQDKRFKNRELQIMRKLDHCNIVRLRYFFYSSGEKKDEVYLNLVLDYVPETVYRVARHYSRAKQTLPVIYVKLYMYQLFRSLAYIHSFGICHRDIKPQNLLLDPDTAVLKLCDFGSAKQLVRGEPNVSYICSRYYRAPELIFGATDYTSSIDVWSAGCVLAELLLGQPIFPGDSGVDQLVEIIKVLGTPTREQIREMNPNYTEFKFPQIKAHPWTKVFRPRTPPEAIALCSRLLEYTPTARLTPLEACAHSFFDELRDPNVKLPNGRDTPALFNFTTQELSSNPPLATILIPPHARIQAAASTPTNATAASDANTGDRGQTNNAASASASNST
Calcium/calmodulin-dependent protein kinase type II subunit delta (Homo sapiens), sequence (Q13557 whole entry): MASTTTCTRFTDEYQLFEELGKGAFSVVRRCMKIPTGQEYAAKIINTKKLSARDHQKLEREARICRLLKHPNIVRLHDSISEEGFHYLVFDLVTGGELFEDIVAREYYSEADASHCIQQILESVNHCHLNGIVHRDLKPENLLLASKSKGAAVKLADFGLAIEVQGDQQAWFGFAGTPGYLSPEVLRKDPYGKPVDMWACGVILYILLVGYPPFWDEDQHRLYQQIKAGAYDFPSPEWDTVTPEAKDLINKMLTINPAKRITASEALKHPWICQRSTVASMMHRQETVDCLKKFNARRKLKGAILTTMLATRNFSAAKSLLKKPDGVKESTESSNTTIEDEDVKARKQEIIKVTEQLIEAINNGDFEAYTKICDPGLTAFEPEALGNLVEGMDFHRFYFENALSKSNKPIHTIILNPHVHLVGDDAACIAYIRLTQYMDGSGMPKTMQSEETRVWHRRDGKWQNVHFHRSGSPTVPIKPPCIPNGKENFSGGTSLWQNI

Nc1cnc(N2CCc3cc(S(=O)(=O)Nc4c(F)cc(Cl)cc4F)cc(N4CCCC4=O)c32)nc1
inactive: residual activity [1] 93% | residual activity [2] 100% | residual activity [3] 100% | residual activity [4] 100% | residual activity [5] 100% | residual activity [6] 100% | residual activity [7] 89% | residual activity [8] 100% | residual activity [9] 100% | residual activity [10] 88% | residual activity [11] 89% | residual activity [12] 63% | residual activity [13] 100% | residual activity [14] 100% | residual activity [15] 97% | residual activity [16] 97% | residual activity [17] 100% | residual activity [18] 100% | residual activity [19] 100% | residual activity [20] 71% | residual activity [21] 100% | residual activity [22] 81% | residual activity [23] 100% | inhibition [24] 1.45% | residual activity [25] 100% | residual activity [26] 100% | residual activity [27] 89% | residual activity [28] 100% | residual activity [29] 100% | residual activity [30] 86% | residual activity [31] 100% | residual activity [32] 100% | residual activity [33] 90% | residual activity [34] 100% | residual activity [35] 97% | residual activity [36] 100% | residual activity [37] 100% | residual activity [38] 100% | residual activity [39] 100% | residual activity [40] 100% | residual activity [41] 90% | residual activity [42] 100% | residual activity [43] 81% | residual activity [44] 100% | residual activity [45] 93%

Cn1nc(C(F)(F)F)cc1-c1cnc(N2CCc3cc(S(=O)(=O)Nc4c(F)cc(Cl)cc4F)cc(N4CCCC4=O)c32)nc1 [TP-020]
inactive: residual activity [1] 100% | residual activity [2] 99% | residual activity [3] 82% | residual activity [4] 100% | residual activity [5] 97% | residual activity [6] 61% | residual activity [7] 88% | residual activity [8] 82% | residual activity [9] 77% | residual activity [10] 92% | residual activity [11] 100% | residual activity [12] 100% | residual activity [13] 81% | residual activity [14] 100% | residual activity [15] 68% | residual activity [16] 98% | residual activity [17] 79% | residual activity [18] 100% | residual activity [19] 100% | residual activity [20] 100% | residual activity [21] 100% | residual activity [22] 88% | residual activity [23] 100% | inhibition [24] 7.43% | residual activity [25] 65% | residual activity [26] 100% | residual activity [27] 100% | residual activity [28] 82% | residual activity [29] 100% | residual activity [30] 95% | residual activity [31] 85% | residual activity [32] 68% | residual activity [33] 100% | residual activity [34] 96% | residual activity [35] 89% | residual activity [36] 95% | residual activity [37] 82% | residual activity [38] 80% | residual activity [39] 100% | residual activity [40] 70% | residual activity [41] 94% | residual activity [42] 100% | residual activity [43] 93% | residual activity [44] 91% | residual activity [45] 96%
